Reference: patent US20230113037A1 (Bayer Aktiengesellschaft, priority 2019, published 2023)
“And” between values parts separate entries of the source, which are not always exact repeats. Identical values can stand only once. Like-named read-outs stand apart in the source and are kept apart here.

How the values were obtained:
[1] = biological target: T1, AHR (Homo sapiens, UniProt P35869); assay: In vitro assay 1: antagonism in human cell line (AHR transactivation, firefly luciferase reporter, kynurenic acid prestimulated); type: cell-based; conditions: AHR Antagonism Human IC50 [M], firefly luciferase reporter
T1 construct: U87 MG glioblastoma cells (ATCC #HTB-14) endogenously expressing AHR; endogenous in cells; host or cells: U87 MG glioblastoma cells (ATCC #HTB-14)
T1 sequence (P35869 11-848): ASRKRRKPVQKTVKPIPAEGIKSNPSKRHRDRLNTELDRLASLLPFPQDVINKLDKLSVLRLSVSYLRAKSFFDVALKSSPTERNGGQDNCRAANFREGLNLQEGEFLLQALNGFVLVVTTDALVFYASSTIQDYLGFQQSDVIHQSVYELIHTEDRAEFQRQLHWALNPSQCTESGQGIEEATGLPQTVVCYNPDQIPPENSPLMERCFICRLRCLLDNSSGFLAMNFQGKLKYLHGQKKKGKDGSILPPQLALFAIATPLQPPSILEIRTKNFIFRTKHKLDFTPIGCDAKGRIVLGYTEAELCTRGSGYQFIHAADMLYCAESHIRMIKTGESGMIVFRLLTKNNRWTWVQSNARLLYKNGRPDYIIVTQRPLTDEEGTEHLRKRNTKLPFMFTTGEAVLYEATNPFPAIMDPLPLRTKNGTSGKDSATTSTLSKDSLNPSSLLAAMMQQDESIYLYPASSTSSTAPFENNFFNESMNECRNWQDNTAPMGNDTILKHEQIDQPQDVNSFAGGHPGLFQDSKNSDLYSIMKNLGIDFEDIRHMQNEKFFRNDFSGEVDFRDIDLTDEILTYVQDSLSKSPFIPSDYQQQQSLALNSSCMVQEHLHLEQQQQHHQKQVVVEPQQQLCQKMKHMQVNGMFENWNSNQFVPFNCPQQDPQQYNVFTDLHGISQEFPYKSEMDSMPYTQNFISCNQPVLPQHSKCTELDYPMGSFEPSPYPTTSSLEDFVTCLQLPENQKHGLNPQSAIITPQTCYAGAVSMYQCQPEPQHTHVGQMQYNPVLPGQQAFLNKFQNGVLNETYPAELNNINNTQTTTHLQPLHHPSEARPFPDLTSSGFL
In short: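 U87 MG glioblastoma cells with endogenous AHR, stably carrying a DRE-driven firefly luciferase reporter and constitutive Renilla reporter, prestimulated with kynurenic acid before compound addition. Firefly and Renilla read by dual luciferase; Renilla flags toxicity; normalized to controls (150 μM kynurenic acid + 5 μM staurosporine as full inhibition); repeat values averaged or median.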

[2] = biological target: T2, AHR (Mus musculus, UniProt P30561); assay: In vitro assay 3: antagonism in mouse cell line (AHR transactivation, firefly luciferase reporter, kynurenic acid prestimulated); type: cell-based
T2 sequence (P30561 1-848 P471L/N533S/M589L): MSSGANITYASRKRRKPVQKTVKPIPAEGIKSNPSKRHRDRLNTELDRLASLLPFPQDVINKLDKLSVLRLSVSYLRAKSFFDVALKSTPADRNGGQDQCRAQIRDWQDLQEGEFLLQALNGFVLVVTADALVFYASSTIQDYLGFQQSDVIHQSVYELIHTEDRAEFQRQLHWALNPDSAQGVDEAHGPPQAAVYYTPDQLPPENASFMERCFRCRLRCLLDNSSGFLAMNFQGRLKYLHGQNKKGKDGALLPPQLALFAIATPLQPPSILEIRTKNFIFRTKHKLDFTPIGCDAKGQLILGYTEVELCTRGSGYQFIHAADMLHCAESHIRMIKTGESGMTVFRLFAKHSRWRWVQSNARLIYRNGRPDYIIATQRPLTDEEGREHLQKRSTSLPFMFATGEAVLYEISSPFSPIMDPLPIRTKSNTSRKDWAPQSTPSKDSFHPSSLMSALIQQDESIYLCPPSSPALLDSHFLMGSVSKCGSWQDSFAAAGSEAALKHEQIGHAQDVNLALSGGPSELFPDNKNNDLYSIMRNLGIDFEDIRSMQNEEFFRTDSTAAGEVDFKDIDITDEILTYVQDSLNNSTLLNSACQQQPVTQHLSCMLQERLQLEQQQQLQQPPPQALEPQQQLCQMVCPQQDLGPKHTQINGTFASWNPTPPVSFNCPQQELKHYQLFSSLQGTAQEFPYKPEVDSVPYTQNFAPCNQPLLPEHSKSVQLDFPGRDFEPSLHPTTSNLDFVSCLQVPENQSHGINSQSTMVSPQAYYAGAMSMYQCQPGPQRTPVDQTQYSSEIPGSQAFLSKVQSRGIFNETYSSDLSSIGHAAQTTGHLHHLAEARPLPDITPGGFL
In short: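 Mouse cells stably carrying a DRE-driven AHR-inducible firefly luciferase reporter were prestimulated with the endogenous agonist kynurenic acid before compound addition. Luciferase read by SteadyGlo; cells without kynurenic acid served as full-inhibition control, with normalization to positive and negative controls. Repeat tests reported as mean or median.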

[3] = Hepa 1c1c7 cells, 200 μM kynurenic acid, 20 hours, firefly luciferase reporter, read-out: AHR Antagonism Mouse IC50
[4] = read-out: AHR Antagonism Mouse IC50, Hepa 1c1c7 cells, 200 μM kynurenic acid, 20 hours, firefly luciferase reporter

Row | Compound | IC50 [1] | IC50 [2, 3] | IC50 [2, 4]
1 | COc1ccc(-c2nc3c4cccc(Br)c4nc(N[C@H](C)C(=O)NCC(C)(C)N)n3n2)cc1 [Example 789, N-(2-amino-2-methylpropyl)-N^2-[7-bromo-2-(4-methoxyphenyl)[1,2,4]triazolo[1,5-c]quinazolin-5-yl]-D-alaninamide] | 4.3e-08 M | 17.1 nM | –
2 | C[C@@H](Nc1nc2c(Br)cccc2c2nc(-c3cnn(C)c3)nn12)C(=O)NCC(C)(C)N [Example 790, N-(2-amino-2-methylpropyl)-N^2-[7-bromo-2-(1-methyl-1H-pyrazol-4-yl)[1,2,4]triazolo[1,5-c]quinazolin-5-yl]-D-alaninamide] | 4.14e-07 M | 402 nM | –
3 | CC[C@@H](Nc1nc2ccccc2c2nc(-c3cn(C)nn3)nn12)C(N)=O [Example 793, (2R)-2-{[2-(1-methyl-1H-1,2,3-triazol-4-yl)[1,2,4]triazolo[1,5-c]quinazolin-5-yl]amino}butanamide] | 2.94e-06 M | – | 694 nM
4 | CCCCNC(=O)[C@@H](C)Nc1nc2c(Br)cccc2c2nc(-c3cnn(C)c3)nn12 [Example 794, N^2-[7-bromo-2-(1-methyl-1H-pyrazol-4-yl)[1,2,4]triazolo[1,5-c]quinazolin-5-yl]-N-butyl-D-alaninamide] | 1.76e-08 M | 21.2 nM | –
5 | CCCNC(=O)[C@H](C)Nc1nc2c(Br)cccc2c2nc(-c3cnn(C)c3)nn12 [Example 795, N^2-[7-bromo-2-(1-methyl-1H-pyrazol-4-yl)[1,2,4]triazolo[1,5-c]quinazolin-5-yl]-N-propyl-L-alaninamide] | 2.46e-07 M | 3130 nM | –
6 | CCCNC(=O)[C@@H](C)Nc1nc2c(Br)cccc2c2nc(-c3cnn(C)c3)nn12 [Example 796, N^2-[7-bromo-2-(1-methyl-1H-pyrazol-4-yl)[1,2,4]triazolo[1,5-c]quinazolin-5-yl]-N-propyl-D-alaninamide] | 1.37e-08 M | 20.2 nM | –
7 | CCCNC(=O)[C@@H](CC)Nc1nc2c(Br)cccc2c2nc(-c3ccc(Cl)cc3OC(F)F)nn12 [Example 797, (2R)-2-({7-bromo-2-[4-chloro-2-(difluoromethoxy)phenyl][1,2,4]triazolo[1,5-c]quinazolin-5-yl}amino)-N-propylbutanamide] | 1.58e-09 M | 0.963 nM | –
8 | CCNC(=O)[C@@H](CC)Nc1nc2c(Br)cccc2c2nc(-c3ccc(Cl)cc3OC(F)F)nn12 [Example 798, (2R)-2-({7-bromo-2-[4-chloro-2-(difluoromethoxy)phenyl][1,2,4]triazolo[1,5-c]quinazolin-5-yl}amino)-N-ethylbutanamide] | 7.57e-10 M | 0.811 nM | –
9 | CCNC(=O)[C@H](CC)Nc1nc2c(Br)cccc2c2nc(-c3ccc(Cl)cc3OC(F)F)nn12 [Example 799, (2S)-2-({7-bromo-2-[4-chloro-2-(difluoromethoxy)phenyl][1,2,4]triazolo[1,5-c]quinazolin-5-yl}amino)-N-ethylbutanamide] | 4.21e-08 M | 18.5 nM | –
10 | CC[C@@H](Nc1nc2c(Br)cccc2c2nc(-c3ccnn3C)nn12)C(N)=O [Example 800, (2R)-2-{[7-bromo-2-(1-methyl-1H-pyrazol-5-yl)[1,2,4]triazolo[1,5-c]quinazolin-5-yl]amino}butanamide] | 2.37e-09 M | – | 1.69 nM
11 | CC[C@H](Nc1nc2c(Br)cccc2c2nc(-c3ccnn3C)nn12)C(N)=O [Example 801, (2S)-2-{[7-bromo-2-(1-methyl-1H-pyrazol-5-yl)[1,2,4]triazolo[1,5-c]quinazolin-5-yl]amino}butanamide] | 1.04e-07 M | – | 40.5 nM
12 | CCCNC(=O)[C@H](C)Nc1nc2c(Br)cccc2c2nc(-c3ccc(Cl)cc3OC(F)F)nn12 [Example 802, N^2-{7-bromo-2-[4-chloro-2-(difluoromethoxy)phenyl][1,2,4]triazolo[1,5-c]quinazolin-5-yl}-N-propyl-L-alaninamide] | 4.76e-08 M | 12.5 nM | –
13 | CCCCNC(=O)[C@@H](CC)Nc1nc2c(Br)cccc2c2nc(-c3ccc(Cl)cc3OC(F)F)nn12 [Example 804, (2R)-2-({7-bromo-2-[4-chloro-2-(difluoromethoxy)phenyl][1,2,4]triazolo[1,5-c]quianzolin-5-yl}amino)-N-butylbutanamide] | 6.42e-09 M | 3 nM | –
14 | CC[C@H](Nc1nc2c(C(F)(F)F)cccc2c2nc(-c3ccnn3C)nn12)C(N)=O [Example 805, (2S)-2-{[2-(1-methyl-1H-pyrazol-5-yl)-7-(trifluoromethyl)[1,2,4]triazolo[1,5-c]quinazolin-5-yl]amino}butanamide] | 1.9e-07 M | 70.4 nM | –
15 | CC[C@@H](Nc1nc2c(C(F)(F)F)cccc2c2nc(-c3ccnn3C)nn12)C(N)=O [Example 806, (2R)-2-{[2-(1-methyl-1H-pyrazol-5-yl)-7-(trifluoromethyl)[1,2,4]triazolo[1,5-c]quinazolin-5-yl]amino}butanamide] | 3.49e-09 M | 1.14 nM | –
16 | Cn1nccc1-c1nc2c3cccc(C(F)(F)F)c3nc(N[C@H]3CCCCNC3=O)n2n1 [Example 807, (3S)-3-{[2-(1-methyl-1H-pyrazol-5-yl)-7-(trifluoromethyl)[1,2,4]triazolo[1,5-c]quinazolin-5-yl]amino}azepan-2-one] | 1.1e-07 M | 63.8 nM | –
17 | Cn1nccc1-c1nc2c3cccc(C(F)(F)F)c3nc(N[C@@H]3CCCCNC3=O)n2n1 [Example 808, (3R)-3-{[2-(1-methyl-1H-pyrazol-5-yl)-7-(trifluoromethyl)[1,2,4]triazolo[1,5-c]quinazolin-5-yl]amino}azepan-2-one] | 8.12e-10 M | 1.16 nM | –
18 | COc1ccc(-c2nc3c4cccc(Br)c4nc(N[C@H](C)C(=O)NCCCN(C)C)n3n2)cc1 [Example 809, N^2-[7-bromo-2-(4-methoxyphenyl)[1,2,4]triazolo[1,5-c]quinazolin-5-yl]-N-[3-(dimethylamino)propyl]-D-alaninamide] | 1.82e-08 M | 9.05 nM | –
19 | CCCNC(=O)[C@H](C)Nc1nc2c(Br)cccc2c2nc(-c3ccc(Cl)cc3OC(F)(F)F)nn12 [Example 811, N^2-{7-bromo-2-[4-chloro-2-(trifluoromethoxy)phenyl][1,2,4]triazolo[1,5-c]quinazolin-5-yl}-N-propyl-L-alaninamide] | > 5.71e-06 M and 4.65e-06 M and > 2e-06 M | 43.3 nM | –
20 | CCCNC(=O)[C@@H](CC)Nc1nc2c(Br)cccc2c2nc(-c3ccc(Cl)cc3OC(F)(F)F)nn12 [Example 812, (2R)-2-({7-bromo-2-[4-chloro-2-(trifluoromethoxy)phenyl][1,2,4]triazolo[1,5-c]quinazolin-5-yl}amino)-N-propylbutanamide] | 3.57e-09 M | 2.47 nM | –
21 | CCCCNC(=O)[C@H](CC)Nc1nc2c(Br)cccc2c2nc(-c3ccc(Cl)cc3OC(F)(F)F)nn12 [Example 813, (2S)-2-({7-bromo-2-[4-chloro-2-(trifluoromethoxy)phenyl][1,2,4]triazolo[1,5-c]quinazolin-5-yl}amino)-N-butylbutanamide] | > 2e-06 M | 1920 nM and > 2000 nM | –
